Results published in patent publication US7655392B2, “Quenching methods for red blood cell inactivation process” (priority 2004, dated 2010).

Test system: Staphylococcus epidermidis
Assay: Inactivation of Staphylococcus epidermidis in RBC (colony count)
Details: for Change in Log titer: initial RBC titer 6.5
[1] = 0.2 mM PIC-1, then 20 mM glutathione+2 eq base after 1 min
[2] = 0.2 mM PIC-1, then 20 mM glutathione+2 eq base after 5 min
[3] = 0.2 mM PIC-1, then 20 mM glutathione+2 eq base after 10 min
[4] = 0.2 mM PIC-1, then 20 mM glutathione+2 eq base after 20 min
[5] = 0.2 mM PIC-1 and 2 mM glutathione, 0 eq base, simultaneous
[6] = 0.2 mM PIC-1 and 20 mM glutathione, 0 eq base, simultaneous
[7] = 20 mM glutathione+2 eq base, then 0.2 mM PIC-1 after 1 min
[8] = 20 mM glutathione+2 eq base, then 0.2 mM PIC-1 after 10 min
[9] = Table 5C: 0.2 mM PIC-1+2 mM GSH, 0 eq base, no delay
[10] = Table 5C: 5 mM Cys+1 eq base, then 0.2 mM PIC-1 after 10 min
[11] = Table 5C: 10 mM Cys+1 eq base, then 0.2 mM PIC-1 after 10 min
[12] = Table 5C: 20 mM Cys+1 eq base, then 0.2 mM PIC-1 after 10 min
[13] = Table 5C: 20 mM GSH+2 eq base, then 0.2 mM PIC-1 after 10 min
[14] = Table 5C: […] Cys+1 eq base, then 0.2 mM PIC-1 after 10 min

Procedure: Whole blood (Blood Source, Sacramento, Calif.) was used to prepare a red blood cell (RBC) composition by centrifuging to provide packed RBC (34 mL of approximately 90% hematocrit), then adding 17 mL Erythrosol to a hematocrit of approximately 60%. Erythrosol is a red blood cell additive (Baxter Healthcare Corp., Deerfield, Ill.) that may be prepared by combining sodium citrate dihydrate (7.82 g); sodium acid phosphate dihydrate (0.73 g); sodium phosphate dihydrate (3.03 g); adenine (0.22 g); mannitol (7.74 g); and glucose (9 g) in 1 liter of distilled water. The bacterial preparation was then added ( 1/100th of the total volume) to the RBC/Erythrosol to provide contaminated RBC. The contaminated RBC was divided into several samples and treated according to Table 2, where PIC-1 is β-alanine, N-(acridin-9-yl), 2-[bis(2-chloroethyl)amino]ethyl ester. The PIC-1 and glutathione (Aldrich, St. Louis, Mo.) were dissolved in a solution of 8% dextrose monohydrate at about 15× the desired concentration in the final red blood cell composition when added together, or 30× when added separately. […] For separate addition using 20 mM neutralized glutathione, PIC-1 is prepared by dissolving 7.6 mg in 2.5 mL of 8% dextrose, glutathione is prepared by dissolving 460 mg in 1.9 mL of 8% dextrose and mixing with 0.6 mL of 5N NaOH, then adding 165 μL of each solution to 4.67 mL RBC in the appropriate order. Following treatment, the samples were incubated for 2 hours, and 100 μL of each was serially diluted and plated on LB plates. These were incubated overnight at 37° C. in order to assess bacterial growth. The bacterial titer was determined by counting colonies on the plates and based on the dilution of the plate, the titer was determined. For example, with 10-fold serial dilutions, 30 colonies counted on the 5th dilution of the original solution, where 0.1 mL are plated, would indicate an initial titer of (30×10^5)/0.1=3×10^7, or 7.47 log. […] Note that for most samples in Table 2A the PIC-1 and glutathione were formulated together. […] The study was repeated with sequential addition of the two components, as indicated in Table 2B (time delay of 0 indicates they were added in the same solution).
Additional studies were done using S. epidermidis, where the overnight culture was used without dilution. […] PIC-1 is at 0.2 mM in all samples.
For these samples, the NaOH stock was prepared at 10N and appropriate volumes of the various components were used following the procedures above. Standard conditions and/or 20 mM neutralized glutathione (GSH) were run for comparison.

O=C(CCNc1c2ccccc2nc2ccccc12)OCCN(CCCl)CCCl [PIC-1]
Log S. epidermidis reduction [1]: 6.70 Log
Log S. epidermidis titer [1]: −0.08 Log
Log S. epidermidis reduction [2]: 6.70 Log
Log S. epidermidis titer [2]: −0.08 Log
Log S. epidermidis reduction [3]: 6.70 Log
Log S. epidermidis titer [3]: −0.08 Log
Log S. epidermidis reduction [4]: 6.70 Log
Log S. epidermidis titer [4]: −0.08 Log
Log S. epidermidis reduction [5]: 6.70 Log
Log S. epidermidis titer [5]: −0.08 Log
Log S. epidermidis reduction [6]: 0.22 Log
Log S. epidermidis titer [6]: 6.40 Log
Log S. epidermidis reduction [7]: 6.10 Log
Log S. epidermidis titer [7]: 0.52 Log
Log S. epidermidis reduction [8]: 5.92 Log
Log S. epidermidis titer [8]: 0.70 Log
inactivation of S. epidermidis (20 mM neutralized glutathione as quencher, 0.2 mM PIC-1): not significantly reduced
Log S. epidermidis reduction [9]: 7.2 Log
Log S. epidermidis titer [9]: 0 Log
Log S. epidermidis reduction [10]: 7.2 Log
Log S. epidermidis titer [10]: 0 Log
Log S. epidermidis reduction [11]: 4.9 Log
Log S. epidermidis titer [11]: 2.3 Log
Log S. epidermidis reduction [12]: 4.0 Log
Log S. epidermidis titer [12]: 3.2 Log
Log S. epidermidis reduction [13]: 7.2 Log
Log S. epidermidis titer [13]: 0 Log
Log S. epidermidis reduction [14]: 7.2 Log
Log S. epidermidis titer [14]: 0 Log
Change in Log titer (2 mM GSH, 1 eq. base, 0.2 mM PIC-1): 6.5 Log
Change in Log titer (2 mM GSH, 2 eq. base, 0.2 mM PIC-1): 6.5 Log
Change in Log titer (2 mM GSH, no added base, 0.2 mM PIC-1): 6.5 Log
Change in Log titer (5 mM GSH, 1 eq. base, 0.2 mM PIC-1): 6.5 Log
Change in Log titer (5 mM GSH, 2 eq. base, 0.2 mM PIC-1): 6.5 Log
Change in Log titer (5 mM GSH, no added base, 0.2 mM PIC-1): 6.5 Log
Change in Log titer (10 mM GSH, 1 eq. base, 0.2 mM PIC-1): 6.5 Log
Change in Log titer (10 mM GSH, 2 eq. base, 0.2 mM PIC-1): 6.5 Log
Change in Log titer (10 mM GSH, no added base, 0.2 mM PIC-1): 2.9 Log
Change in Log titer (20 mM GSH, 1 eq. base, 0.2 mM PIC-1): 6.5 Log
Change in Log titer (20 mM GSH, 2 eq. base, 0.2 mM PIC-1): 6.5 Log
Change in Log titer (20 mM GSH, no added base, 0.2 mM PIC-1): 2.5 Log
